One assay has as its target IRE1α (Homo sapiens, UniProt O75460). Kind of assay: biochemical. The class given is binding.
The target of a further assay is IRE1β (Homo sapiens, UniProt Q76MJ5). Briefly: biochemical. The class given is binding.
IRE1β, sequence (Q76MJ5 35-926): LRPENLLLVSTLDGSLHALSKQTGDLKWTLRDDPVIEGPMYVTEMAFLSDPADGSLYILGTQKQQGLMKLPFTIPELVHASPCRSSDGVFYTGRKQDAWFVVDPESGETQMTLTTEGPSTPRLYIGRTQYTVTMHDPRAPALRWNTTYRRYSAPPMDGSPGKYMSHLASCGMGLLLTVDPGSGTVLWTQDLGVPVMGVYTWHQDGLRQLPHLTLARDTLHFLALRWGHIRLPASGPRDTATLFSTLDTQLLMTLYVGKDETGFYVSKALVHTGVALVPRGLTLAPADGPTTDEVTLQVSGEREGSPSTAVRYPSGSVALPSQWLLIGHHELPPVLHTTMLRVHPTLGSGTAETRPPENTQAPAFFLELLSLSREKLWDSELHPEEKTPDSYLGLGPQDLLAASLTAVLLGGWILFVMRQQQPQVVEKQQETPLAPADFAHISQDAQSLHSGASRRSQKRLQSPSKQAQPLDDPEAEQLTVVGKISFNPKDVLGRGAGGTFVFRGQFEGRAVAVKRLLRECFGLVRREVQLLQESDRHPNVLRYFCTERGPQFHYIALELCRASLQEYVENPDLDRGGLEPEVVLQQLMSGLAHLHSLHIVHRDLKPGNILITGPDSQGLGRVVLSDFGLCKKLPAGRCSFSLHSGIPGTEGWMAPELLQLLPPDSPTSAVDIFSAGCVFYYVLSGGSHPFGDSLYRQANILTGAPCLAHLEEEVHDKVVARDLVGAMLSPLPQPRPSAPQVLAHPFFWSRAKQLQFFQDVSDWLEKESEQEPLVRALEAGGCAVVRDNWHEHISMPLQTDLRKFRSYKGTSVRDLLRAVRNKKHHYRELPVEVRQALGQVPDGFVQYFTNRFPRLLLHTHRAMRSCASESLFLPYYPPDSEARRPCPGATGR

IRE1α, sequence (O75460 19-977): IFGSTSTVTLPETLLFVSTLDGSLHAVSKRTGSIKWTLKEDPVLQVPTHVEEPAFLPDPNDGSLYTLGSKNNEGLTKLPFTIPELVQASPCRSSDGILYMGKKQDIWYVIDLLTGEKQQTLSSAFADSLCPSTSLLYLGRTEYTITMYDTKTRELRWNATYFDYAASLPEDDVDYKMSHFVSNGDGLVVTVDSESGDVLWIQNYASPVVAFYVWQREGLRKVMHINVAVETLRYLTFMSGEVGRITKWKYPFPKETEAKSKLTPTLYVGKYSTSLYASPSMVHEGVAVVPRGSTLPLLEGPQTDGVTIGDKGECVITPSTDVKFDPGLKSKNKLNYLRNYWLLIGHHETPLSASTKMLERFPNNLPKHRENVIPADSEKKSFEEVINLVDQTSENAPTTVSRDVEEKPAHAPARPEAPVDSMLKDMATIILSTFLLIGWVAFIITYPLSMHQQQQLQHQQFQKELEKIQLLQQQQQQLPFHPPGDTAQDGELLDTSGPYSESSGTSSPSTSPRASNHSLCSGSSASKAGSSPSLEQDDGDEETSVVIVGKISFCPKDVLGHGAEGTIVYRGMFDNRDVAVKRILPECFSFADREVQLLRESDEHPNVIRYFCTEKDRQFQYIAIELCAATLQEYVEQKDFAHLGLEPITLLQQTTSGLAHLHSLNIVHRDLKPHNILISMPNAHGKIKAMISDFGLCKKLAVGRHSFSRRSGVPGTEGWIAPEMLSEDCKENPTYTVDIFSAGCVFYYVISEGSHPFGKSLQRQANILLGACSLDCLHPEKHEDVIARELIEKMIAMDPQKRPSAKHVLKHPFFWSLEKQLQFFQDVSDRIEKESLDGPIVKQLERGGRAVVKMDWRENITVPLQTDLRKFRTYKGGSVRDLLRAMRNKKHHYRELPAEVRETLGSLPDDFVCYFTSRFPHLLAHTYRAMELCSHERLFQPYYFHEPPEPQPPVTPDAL

By IC50 is commonly meant the midpoint of a concentration-inhibition curve. The low end stands for greater potency, the high end for weaker potency. On to `O=C(CN1CCOCC1)N[C@H]1CC[C@H](Nc2cc(Cl)nn3c(-c4ccc5[nH]ncc5c4)cnc23)CC1` [compound 26], for which the concentration for half-maximal inhibition (IC50) against IRE1α came to 39 nM; against IRE1β it was 345 nM. For the same compound, the “selectivity for IRE1α over the IRE1β isoform” value on IRE1β was determined as 9 fold.
Turning to `CN1CCC(CNc2cc(Cl)nn3c(-c4cc5nc(Nc6ccccc6)[nH]c5cc4F)cnc23)CC1` [compound 31, 6-Chloro-3-(6-fluoro-2-(phenylamino)-1H-benzo[d]imidazol-5-yl)-N-((1-methylpiperidin-4-yl)methyl)imidazo[1,2-b]pyridazin-8-amine], at IRE1β, the midpoint of inhibition, the IC50, lay at 7680 nM and the “selectivity for IRE1α over the IRE1β isoform” value is 100 fold.

The values above are taken from PMC6437697 (Journal of Medicinal Chemistry, 2019).
